Columns and labels:
[1] = system: Primary murine alveolar macrophages; experiment: PM-induced mRNA expression in primary murine alveolar macrophages; type: cell-based; details: pretreated 4 hours, 4 hours later
Procedure: FIG. 19A-C. Primary murine alveolar macrophages were treated with PM or vehicle control (media) in the absence or presence of CBR-470-1 (pretreated 4 hours prior to PM) and measured IL-6, TNFa and NQO1 mRNA 4 hours later.

PGK1 [2] = target: T1, PGK1 (Homo sapiens, UniProt P00558); experiment: Isothermal dose response profiling of PGK1 against GAPDH; type: binding; details: 57° C., 0-333 μM
T1 sequence (P00558 1-417): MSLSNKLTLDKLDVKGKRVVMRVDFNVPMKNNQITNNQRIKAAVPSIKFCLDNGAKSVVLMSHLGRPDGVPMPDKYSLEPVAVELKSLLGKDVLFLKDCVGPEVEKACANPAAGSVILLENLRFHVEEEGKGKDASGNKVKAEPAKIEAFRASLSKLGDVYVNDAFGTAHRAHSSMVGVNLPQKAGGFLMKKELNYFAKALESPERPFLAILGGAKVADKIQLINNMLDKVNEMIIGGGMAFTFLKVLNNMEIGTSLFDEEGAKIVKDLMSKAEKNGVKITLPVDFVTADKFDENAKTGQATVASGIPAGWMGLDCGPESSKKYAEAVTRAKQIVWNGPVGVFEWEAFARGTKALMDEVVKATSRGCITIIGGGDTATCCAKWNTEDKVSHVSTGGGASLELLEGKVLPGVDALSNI
Procedure: (§1) FIG. 5A-E. A photoactivatable affinity probe-based approach identifies PGK1 as the relevant cellular target of CBR-470-1. (a) Silver staining and anti-biotin Western blots of ammonium sulfate fractionated lysates from UV-irradiated IMR32 cells treated with 5 μM for 1 hour with or without CBR-470-1 competition (250 μM) (n=3). Shown on the right are initial proteomic target results from gel-band digestion and LC-MS/MS analysis. (b) Dye-based thermal denaturation assay with recombinant PGK1 in the presence CBR-470-1 (20 μM) or vehicle alone (n=3). Calculated Tm values are listed. (c, d) Dose-dependent thermal stability assay of recombinant PGK1 and GAPDH in the presence of increasing doses of CBR-470-1 near the Tm of both proteins (57° C.) (c) (n=5) or room temperature (d) (n=3). Western blot of sample supernatants after centrifugation (13,000 rpm) detected total PGK1 and GAPDH protein, which were plotted in Prism (below). (e) ARE-LUC reporter activity in HEK293T cells with transient shRNA.
Isothermal dose response profiling of PGK1. In-vitro thermal profiling assay for recombinant proteins was performed by dissolving pure recombinant PGK1 and GAPDH into PBS and dividing equal amount of mixture into 9 aliquots. […] Samples were analyzed by SDS-PAGE and Western blot.

HCT116 = experiment: Viability of HCT116 with genetic manipulation of GLO1 and PGK1; type: cell-based
PGK1 [3] = target: T1, PGK1; experiment: Dye-based thermal denaturation assay; type: binding; details: recombinant PGK1, compound 20 μM
Procedure: as §1
Dye-based thermal denaturation assay. Thermal denaturation experiments were performed using a Protein Thermal Shift Dye Kit (ThermoFisher, 4461146). […] Fluorescence values were recorded using a Viia7 Real-Time PCR instrument according to supplied instructions.

[4] = system: NRF2-dependent luciferase reporter (pTI-ARE-LUC); experiment: ARE-LUC reporter assay in HEK293T cells with PGK1 knockdown or overexpression; type: cell-based
Procedure: FIG. 1A-D. CBR-470-1-dependent inhibition of glycolysis activates NRF2 signaling. […] PGK1, Actin and Tubulin protein levels are shown from representative experiments (n=3). (c) Heat map depiction of relative metabolite levels in IMR32 cells treated for 30 min with CBR-470-1 (left) or viral shRNA knockdown of PGK1 (right) relative to DMSO and scramble shRNA controls, respectively. BPG refers to both 2,3-BPG and 1,3-BPG, whereas 1,3-BPG specifically refers to the 1,3-isomer.
High throughput screening and ARE-LUC reporter assay. For high throughput screening, IMR32 cells were plated at 5×10^3 cells per well in white 384-well plates in 40 μL of growth medium. […] After 24 hour incubation, ARE-LUC luminance values were recorded on an Envision instrument after the addition of 30 μL of Bright Glo reagent solution (Promega, diluted 1:3 in water). […] For overexpression and knockdown experiments in HEK293T with ARE-LUC reporter readouts, 5×10^5 cells were plated on poly-d-lysine coated plates and transfected with 1.5 μg of overexpression or shRNA plasmid and 500 ng of pTI-ARE-LUC using Optimem medium and Fugene in the same mode as above. […] ARE-LUC luminance values were recorded on an Envision plate reader 24 hours later by the addition of 75 μL of Bright Glo reagent solution (1:3 in water).

With `CC(C)CN[C@H]1CS(=O)(=O)C[C@@H]1S(=O)(=O)c1ccc(Cl)cc1` [CBR-470-1] the “IL-6 mRNA” value [1] was “attenuated PM-induced l6 and TNFa mRNA expression”, the “NQO1 mRNA” value [1] was “induced NQO1 (Nrf2 target gene)” and the “TNFa mRNA” value [1] was “attenuated PM-induced l6 and TNFa mRNA expression”. The “alteration of PGK1 stability, isothermal dose response against PGK1 and GAPDH” value (PGK1 [2]) was “selective, dose-dependent alteration of PGK1 stability”, the “viability sensitivity of PGK1 knockdown cells” value (HCT116; HCT116, PGK1 knockdown) was “more sensitive to CBR-470-1 metabolic inhibition” and the “viability sensitivity of cells acclimated to low GLO1 levels” value (HCT116; HCT116, low GLO1) was “resistance to CBR-470-1 metabolic inhibition”. The “shift in PGK1 thermal stability” value (PGK1 [3]) was “consistent shift in PGK1 stability”, the “EC50 of ARE-LUC reporter activation” value ([4]; knockdown of PGK1) was “decreased” and the “EC50 of ARE-LUC reporter activation” value ([4]; overexpression of PGK1) was “increased”.
